Earlier results, collected in patent publication US4127533A, “Novel octapeptides, intermediates therefor, and compositions and methods employing said octapeptides” (priority 1977, dated 1978).

Legend:
[1] = test system: brain opiate receptor sites
rat = details: injected directly into the brain of the rat

H-Tyr-Gly-Gly-Phe-Met-OH [methionine enkephalin]
binding to partially purified brain opiate receptor sites [1]: binds stereo-specifically | analgesic activity (rat): only weak analgesic agent of short duration
